{"source": "patent US6562243B2", "about": "(priority 2001, dated 2003)", "origin": "cited, not measured here", "tested_on": "Legionella", "data": [{"smiles": "[Ag]", "note": "[silver]", "values": [{"measurement": "silver level that kills Legionella", "result": 20, "unit": "ppb"}]}]}
